Test results as given in article PMC9779606, “Synthesis, Structural Characterization and Biological Activity Evaluation of Novel Cu(II) Complexes with 3-(trifluoromethyl)phenylthiourea Derivatives” (International Journal of Molecular Sciences, 2022).
In brackets after ≈: the same amount, converted by molar mass. Read-outs that look alike come from different tables or passages of the source.

How the values were obtained:
M. tuberculosis H37Rv = assay: Tuberculostatic activity, Microplate Alamar Blue Assay (MABA); type: cell-based, Mycobacterium tuberculosis; conditions: Mycobacterium tuberculosis
[1] = tested on: M. tuberculosis Spec. 192; assay: as above; type: cell-based, Mycobacterium tuberculosis; conditions: Mycobacterium tuberculosis
[2] = tested on: SW480 (primary colon cancer); assay: Cytotoxicity, MTT assay; type: cell-based, human; conditions: mean SD
Procedure: (§1) MTT assay was performed as previously described. Experiments were repeated three times. […] Decreased relative MTT level means decreased cell viability.

[3] = tested on: HaCaT (immortalized human keratinocytes); assay: Cytotoxicity, MTT assay; type: cell-based; conditions: 72 h, normal cells, mean SD
Procedure: as §1

[4] = tested on: 30 clinically isolated strains of S. aureus and S. epidermidis; design: method as in PMID 28822236, PMID 29499458; conditions: cited from earlier work
[5] = tested on: SW620 (metastatic colon cancer); assay: Cytotoxicity, MTT assay; type: cell-based, human; conditions: 72 h, mean SD
Procedure: as §1

[6] = M. tuberculosis H37Rv, standard strain, MABA, read-out: MIC
[7] = M. tuberculosis Spec. 192, patient isolate fully sensitive to tuberculostatics, MABA, read-out: MIC

Compound: CO[C@H]1/C=C/O[C@@]2(C)Oc3c(C)c(O)c4c(O)c(c(/C=N/N5CCN(C)CC5)c(O)c4c3C2=O)NC(=O)/C(C)=C\C=C\[C@H](C)[C@H](O)[C@@H](C)[C@@H](O)[C@@H](C)[C@H](OC(C)=O)[C@@H]1C [Rifampicin (RMP), Rifampicin, reference compound]
- MIC (M. tuberculosis H37Rv; [6]): 1 µg/mL (≈ 1.22 µM)
- MIC [1, 7]: 1 µg/mL (≈ 1.22 µM)

Compound: COc1cccc2c1C(=O)c1c(O)c3c(c(O)c1C2=O)C[C@@](O)(C(=O)CO)C[C@@H]3O[C@H]1C[C@H](N)[C@H](O)[C@H](C)O1 [Doxorubicin, doxorubicin, reference compound]
- IC50 ([2]; Homo sapiens, SW480, 72 h): 0.75 ± 0.1 µM
- IC50 ([3]; Homo sapiens, HaCaT): 0.29 ± 0.11 µM

Compound: [H]/N=C(/N)N[C@H]1[C@H](O)[C@@H](O)[C@H](O[C@@H]2O[C@@H](C)[C@](O)(C=O)[C@H]2O[C@@H]2O[C@@H](CO)[C@H](O)[C@@H](O)[C@@H]2NC)[C@@H](N/C(N)=N\[H])[C@@H]1O [Streptomycin (SM), Streptomycin, reference compound]
- MIC (M. tuberculosis H37Rv; [6]): 1 µg/mL (≈ 1.72 µM)
- MIC [1, 7]: 1 µg/mL (≈ 1.72 µM)

Compound: complex with 1-1-(3,4-dichlorophenyl)-3-[3-(trifluoromethyl) phenyl]thiourea
- MIC [4]: 0.5 to 2 µg/mL

Compound: N.N.[Cl][Pt][Cl] [Cisplatin, cisplatin, reference compound]
- IC50 ([2]; 72 h): 10.4 µM
- IC50 [5]: 6.7 ± 1.1 µM
- IC50 [3]: 6.3 ± 0.7 µM

Compound: CC[C@@H](CO)NCCN[C@@H](CC)CO [Ethambutol (EMB), Ethambutol, reference compound]
- MIC (M. tuberculosis H37Rv; [6]): 2 µg/mL (≈ 9.79 µM)
- MIC [1, 7]: 2 µg/mL (≈ 9.79 µM)

Compound: NNC(=O)c1ccncc1 [Isoniazid (INH), Isoniazid, reference compound]
- MIC (M. tuberculosis H37Rv; H37RV): 0.125 µg/mL (≈ 0.911 µM)
- MIC ([1]; SPEC.192): 0.125 µg/mL (≈ 0.911 µM)
